In PMC8157578 (Antioxidants, 2021):

Assays:
[1] = system: HeLa cells; test: Immunofluorescence analysis of intracellular γ-H2AX generation in iron-overloaded HeLa cells (with H2O2); format: cell-based, human; settings: Fe(II)-H2O2 alone 2.86±0.64
Description: The immortalized human cervical carcinoma HeLa cell line used in this study was obtained from the Cell Resource Center, Peking Union Medical College. The cell line was checked to be free of mycoplasma contamination by PCR and culture. Its species origin was confirmed with PCR. The identity of the cell line was authenticated with STR profiling (FBI, CODIS). HeLa cells were cultured in a DMEM medium (4 mM L-glutamine, 4500 mg/L glucose, and no sodium pyruvate) with 10% fetal bovine serum (FBS) and 1% penicillin–streptomycin at 37 °C under a 5% CO2 atmosphere.
HeLa cells (10^4/well) were loaded by incubation with 20 μM Fe(II) for 2 h at 37 °C. […] For a detailed experimental procedure, please refer to the Supplementary Materials and our previous report. The experiment was repeated three times. The observation of the fluorescence of γ-H2AX in HeLa cells was conducted with a confocal laser scanning microscope (CLSM) (Leica TCS SP). Thirty cells in each group were randomly selected in different microscopic fields for quantitative detection. In detail, each well was equally divided into nine fields and numbered sequentially from the top right corner. Four fields were randomly selected according to a random number table. Thirty cells were then randomly selected from these four fields. All images were analyzed blind regarding exposure parameters, which were coded by one person and read by another who was blinded to the code. The fluorescence intensity of the γ-H2AX signal on selected images was automatically analyzed using the Image-J software. The Statistical Product and Service Solutions (SPSS 21) program was employed to analyze the data through ANOVA. Significant difference from iron-overloaded group are marked with * p < 0.05, ** p < 0.01, and *** p < 0.001.
(§1) 2.1 Immunofluorescence analysis of intracellular γ-H2AX generation in Hela cells
(§2) Fixed cells were permeabilized with 0.25% Triton-X100 in PBS for 10 min and blocked in 10%
(§3) normal goat serum, 0.1% tween 20 in PBS for 1 hour. The cells were incubated with primary
(§4) monoclonal antibody, γ-H2AX (Ser139, 20E3, Rabbit, mAb #9718) (1:600) overnight at 4°C, and then
(§5) stained secondary antibodies, anti-rabbit Alexa-488 and anti-mouse (Cell Signaling Technology) for
(§6) 1 hour. After Hoechst 33342 (10 μg/mL) staining for 2 min, dishes were mounted in ProLong™ Gold
(§7) Antifade Mountant (Invitrogen™) and stored at 4°C in the dark before confocal laser-scanning by
(§8) Broadband Confocal Leica TCS SP5. The CLSM images were obtained with the following excitation
(§9) respectively. Cells were washed 3 times with PBS (200 μL/well) at intervals. […]

[2] = system: HeLa cells; test: Auto-fluorescence of HeLa cells after incubation with compound (cell uptake); format: cell-based, human; settings: HeLa cells incubated two hours, auto-fluorescence Ex ~330 nm, Em ~450 nm
Description: Subsequently, cells were washed and collected by centrifugation, the fluorescence of cells (105) was monitored by Thermo Scientific Varioskan Flash (Thermo Fisher scientific, USA) ***Significant difference from iron-overloaded group, p < 0.001.

[3] = ESR spin-trapping (DMPO) of •OH generated by Fe(III)–citrate–ascorbate–H2O2; format: biochemical; settings: 100 μM Fe(III)–citrate, 100 μM ascorbate, 1 mM H2O2
Description: The basic system used in this study consisted of Fe(III)/Fe(II), ascorbate, H2O2, and the spin trapping agent DMPO (100 mM) in 20 mM HEPES (pH 7.4) with or without CAPE and its analogues.
The reaction mixture contained 100 μM Fe(III)–citrate, 100 μM ascorbate, and 1 mM H2O2, as well as the indicated concentrations of CAPE and its analogues. The experiments were repeated three times, and only typical spectra are presented.
2.3 Electron spin resonance (ESR) spin-trapping studies
spectrometer parameters were as follows: scan range, 100 G; field set, 3470 G; time constant, 200 ms;
scan time, 100 s; modulation amplitude, 1.0 G; modulation frequency, 100 kHz; receiver gain,

[4] = system: HeLa cells; test: Labile iron pool (LIP) determination with calcein-AM in iron-overloaded HeLa cells, flow cytometry; format: cell-based, human; settings: 15 min
Description: HeLa cells (10^6/mL) were loaded by incubation with 20 μM Fe(II) for 2 h at 37 °C. Subsequently, cells were collected by centrifugation (1000 rpm for 5 min) and incubated with 0.5 μM calcein-AM for 15 min at 37 °C in a D’hanks buffer of pH 7.4. Cells were then washed twice by D’hanks buffer (pH 7.4) and incubated with or without CAPE and its analogues. The fluorescence was monitored by both flow cytometry (BD FACS Caliber) and a CLSM (Leica TCS SP). The experiment was repeated three times.
Figure 3 Effect of CAPE and its analogues on the LIP level in iron-overloaded cells, as measured by flow cytometry (A–D). HeLa cells were pretreated with 20 μM Fe(II) for 2 h and then incubated with calcein-AM. After 15 min, cells were washed and incubated with or without CAPE and its analogues for 15 min. The fluorescence intensity of cells was measured by flow cytometry. Significant differences from the iron-overloaded group are marked with * p < 0.05, ** p < 0.01, and *** p < 0.001. The experiment was repeated three times.

[5] = system: plasmid pBR322 DNA; test: Plasmid DNA strand breakage induced by Fe(III)–citrate/ascorbate/H2O2, agarose gel electrophoresis; format: biochemical; settings: 20 μM Fe(III)–citrate, 10 μM ascorbate, 200 μM H2O2
Description: (§10) Plasmid DNA agarose gel electrophoresis was employed to investigate protective effect of CAPE and its analogues against DNA strand breakage induced by an iron-mediated system. For experimental procedure details, please refer to the Supplementary Materials.
Figure 4 Protective effect of CAPE and its analogues against Fe(III)–citrate–ascorbate–H2O2-induced DNA damage. […] The reaction mixture contained 20 μM Fe(III)–citrate, 10 μM ascorbate, and 200 μM H2O2, as well as the indicated concentrations of CAPE and its analogues. The experiments were repeated three times, and only typical images are presented. […]
The experiments were conducted via incubation of plasmid pBR322 DNA (5 μg/mL) at 37 °C for
30 min in Chelex-treated HEPES buffer (100 mM, pH 7.4) with the iron-containing systems, in the
absence or presence of the indicated concentrations of CAPE and its analogues. […]

[6] = 1-octanol/phosphate buffer partitioning, shake-flask method; format: physicochemical; settings: 1-octanol / 100 mM phosphate buffer pH 7.4, shake-flask
[7] = system: HeLa cells; test: Labile iron pool (LIP) determination with calcein-AM in iron-overloaded HeLa cells, flow cytometry; format: cell-based, human; settings: 50 μM compound alone, no iron
[8] = Cyclic voltammetry of Fe(III) chelated by ligand; format: physicochemical; settings: 100 mM PB pH 7.4, SCE reference, 2 mV/s; Fe(III) alone approximately −0.65 V
Description: CV was performed in 100 mM PB (pH 7.4) on a Princeton Applied Research (VersaSTAT3) potentiostat with a Pt wire as the counter electrode, a saturated calomel electrode (SCE) as the reference electrode, and a glassy carbon electrode (5 mm in diameter) as the working electrode. The scan rate was 2 mV/s.

[9] = system: plasmid pBR322 DNA; test: Plasmid DNA strand breakage induced by Fe(II)–H2O2, agarose gel electrophoresis; format: biochemical; settings: ratio-dependent
Description: as §10, §1, §2, §3, §4, §5, §6, §7, §8, §9
ESR spectra were recorded at room temperature in a Bruker ESR 300 spectrometer. […]
The consumption of O2 was measured by Orion 3 dissolved oxygen meter (Thermo Scientific, […]
Corona Needle current was 3000 nA. The size of data points was recorded in 4 M format. […]

O=C(/C=C/c1ccc(O)c(O)c1)OCCc1ccccc1 [CAPE, Caffeic acid phenethyl ester]
Fluorescence intensity of γ-H2AX ([1]; Fe(II)-H2O2 + 2 μM compound): 3.07±0.54 Fold of Control
Fluorescence intensity of γ-H2AX ([1]; Fe(II)-H2O2 + 10 μM compound): 2.71±0.32 Fold of Control
Fluorescence intensity of γ-H2AX ([1]; Fe(II)-H2O2 + 20 μM compound): 1.66±0.46 Fold of Control
Fluorescence intensity of γ-H2AX ([1]; Fe(II)-H2O2 + 50 μM compound): 1.26±0.23 Fold of Control
Fluorescence inside the cells after incubation (crossing the cell membrane), in words [2]: significantly increase
Inhibitory effect against Fe(III)-citrate-Vc-H2O2 induced •OH generation, in words [3]: completely inhibited
Concentration with the stated inhibition of Fe(III)-citrate-Vc-H2O2 induced •OH generation ([3]; CAPE completely, CA significantly): 200 µM
Fluorescence intensity of calcein-AM (LIP level) ([4]; 20 μM Fe(II) + 2 μM compound, Fe(II) alone 0.64±0.04): 0.65±0.00 Fold of Control
Fluorescence intensity of calcein-AM (LIP level) ([4]; 20 μM Fe(II) + 20 μM compound, Fe(II) alone 0.64±0.04): 0.73±0.02 Fold of Control
Fluorescence intensity of calcein-AM (LIP level) ([4]; 20 μM Fe(II) + 50 μM compound, Fe(II) alone 0.63-0.64): 0.89±0.04 Fold of Control
Protective effect against Fe(III)–citrate–ascorbate–H2O2-induced DNA damage, in words [5]: significantly inhibited
Concentration range with the stated inhibition of Fe(III)-citrate-Vc-H2O2 induced DNA damage ([5]; CAPE significantly, CA slightly): 40 to 200 µM
LogKow [6]: 2.01 ± 0.02
Fluorescence intensity of calcein-AM (LIP level) [7]: 0.97±0.03 Fold of Control
Reduction potential of Fe(III) chelated by compound [8]: −1.00 V
Inhibition of Fe(II)–H2O2-induced DNA strand breaks, in words [9]: significantly inhibited
